Laboratory results reported in ChEMBL document CHEMBL1201862, “PubChem BioAssay data set” (2004).
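Tested at 5 concentrations; 48 h exposure; 96-well plates; endpoints linearly interpolated, else capped at highest concentration. The concentration for 50% growth inhibition is given as GI50.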 Activity calls are given as the source filed them. Cut-off read from the data, not from the text of the source: active = GI50 up to about 1.1 µM and inactive = higher.

Assays:
Experiment in all cases: NCI anticancer screen, dose series, 48 h
[1] = tested on: NCI-H522
[2] = tested on: KM12
[3] = tested on: U-251
[4] = tested on: UO-31
[5] = tested on: HOP-62
[6] = tested on: OVCAR-3
[7] = tested on: TK-10
[8] = tested on: HL-60
[9] = tested on: SK-MEL-2
[10] = tested on: RPMI-8226
[11] = tested on: OVCAR-8
[12] = tested on: MDA-N
[13] = tested on: M14
[14] = tested on: COLO 205
[15] = tested on: Malme-3M
[16] = tested on: SK-MEL-5
[17] = tested on: HCC 2998
[18] = tested on: A549
[19] = tested on: OVCAR-5
[20] = tested on: SK-MEL-28

Structure (SMILES): CCC(=O)N1NC(=O)C(CC)(CC)C1=O
- GI50 [1]: > 100 µM (inactive)
- GI50 [2]: > 100 µM (inactive)
- GI50 [3]: > 100 µM (inactive)
- GI50 [4]: > 100 µM (inactive)
- GI50 [5]: > 100 µM (inactive)
- GI50 [6]: > 100 µM (inactive)
- GI50 [7]: > 100 µM (inactive)
- GI50 [8]: > 100 µM (inactive)
- GI50 [9]: > 100 µM (inactive)
- GI50 [10]: > 100 µM (inactive)
- GI50 [11]: > 100 µM (inactive)
- GI50 [12]: > 100 µM (inactive)
- GI50 [13]: > 100 µM (inactive)
- GI50 [14]: > 100 µM (inactive)
- GI50 [15]: 0.276 µM (active)
- GI50 [16]: > 100 µM (inactive)
- GI50 [17]: > 100 µM (inactive)
- GI50 [18]: > 100 µM (inactive)
- GI50 [19]: > 100 µM (inactive)
- GI50 [20]: > 100 µM (inactive)

Structure (SMILES): O=C(O)C1=NN(c2ccc(S(=O)(=O)O)cc2)C2(C1)C(Cl)C(=O)N2c1nc2ccccc2s1 (stereo not given)
- GI50 [1]: 10.7 µM (inactive)
- GI50 [2]: 14.9 µM (inactive)
- GI50 [3]: 15.8 µM (inactive)
- GI50 [4]: 8.3 µM (inactive)
- GI50 [5]: 12.5 µM (inactive)
- GI50 [6]: 12.8 µM (inactive)
- GI50 [7]: 18 µM (inactive)
- GI50 [8]: 16.2 µM (inactive)
- GI50 [9]: 15.6 µM (inactive)
- GI50 [10]: 13.1 µM (inactive)
- GI50 [11]: 17.6 µM (inactive)
- GI50 [12]: 21.4 µM (inactive)
- GI50 [13]: 15.7 µM (inactive)
- GI50 [14]: 18.6 µM (inactive)
- GI50 [15]: 20.5 µM (inactive)
- GI50 [16]: 12.8 µM (inactive)
- GI50 [17]: 18.8 µM (inactive)
- GI50 [18]: 16.6 µM (inactive)
- GI50 [19]: 17.1 µM (inactive)
- GI50 [20]: 20.2 µM (inactive)

Structure (SMILES): COc1ccc(N[S+]([O-])c2ccccc2OC)cc1 (stereo not given)
- GI50 [1]: 5.26 µM (inactive)
- GI50 [2]: 4.98 µM (inactive)
- GI50 [3]: 12.5 µM (inactive)
- GI50 [4]: 12.3 µM (inactive)
- GI50 [5]: 37.2 µM (inactive)
- GI50 [6]: 61.4 µM (inactive)
- GI50 [7]: > 100 µM (inactive)
- GI50 [8]: 17.7 µM (inactive)
- GI50 [9]: 11.8 µM (inactive)
- GI50 [10]: 18.7 µM (inactive)
- GI50 [11]: 23.7 µM (inactive)
- GI50 [12]: 33.4 µM (inactive)
- GI50 [13]: 33.3 µM (inactive)
- GI50 [14]: 24.4 µM (inactive)
- GI50 [15]: 19.6 µM (inactive)
- GI50 [16]: 11.2 µM (inactive)
- GI50 [17]: > 10 µM (inactive)
- GI50 [18]: 16.2 µM (inactive)
- GI50 [19]: 46.5 µM (inactive)
- GI50 [20]: 54.8 µM (inactive)

Structure (SMILES): COc1cc([C@H]2CC(=O)C[C@@H](c3cc(OC)c(OC)c(OC)c3)C23C(=O)c2ccccc2C3=O)cc(OC)c1OC
- GI50 [1]: > 100 µM (inactive)
- GI50 [2]: > 100 µM (inactive)
- GI50 [3]: > 100 µM (inactive)
- GI50 [4]: > 100 µM (inactive)
- GI50 [5]: > 100 µM (inactive)
- GI50 [6]: > 100 µM (inactive)
- GI50 [7]: > 100 µM (inactive)
- GI50 [8]: > 100 µM (inactive)
- GI50 [9]: > 100 µM (inactive)
- GI50 [10]: > 100 µM (inactive)
- GI50 [11]: > 100 µM (inactive)
- GI50 [12]: > 100 µM (inactive)
- GI50 [13]: > 100 µM (inactive)
- GI50 [14]: > 100 µM (inactive)
- GI50 [15]: > 100 µM (inactive)
- GI50 [16]: > 100 µM (inactive)
- GI50 [17]: > 100 µM (inactive)
- GI50 [18]: > 100 µM (inactive)
- GI50 [19]: > 100 µM (inactive)
- GI50 [20]: > 100 µM (inactive)

Structure (SMILES): [N-]=[N+]=C(C(=O)CN1CCCC1=O)S(=O)(=O)c1ccccc1
- GI50 [1]: > 100 µM (inactive)
- GI50 [2]: > 100 µM (inactive)
- GI50 [3]: > 100 µM (inactive)
- GI50 [4]: > 100 µM (inactive)
- GI50 [5]: > 100 µM (inactive)
- GI50 [6]: > 100 µM (inactive)
- GI50 [7]: > 100 µM (inactive)
- GI50 [8]: > 100 µM (inactive)
- GI50 [9]: > 100 µM (inactive)
- GI50 [10]: > 100 µM (inactive)
- GI50 [11]: > 100 µM (inactive)
- GI50 [12]: > 100 µM (inactive)
- GI50 [13]: > 100 µM (inactive)
- GI50 [14]: > 100 µM (inactive)
- GI50 [15]: > 100 µM (inactive)
- GI50 [16]: > 100 µM (inactive)
- GI50 [17]: > 100 µM (inactive)
- GI50 [18]: > 100 µM (inactive)
- GI50 [19]: > 100 µM (inactive)
- GI50 [20]: > 100 µM (inactive)

Structure (SMILES): Cn1c2ccc3cc2c(=S)c2cc(ccc21)OCCOCCOCCOCCOCCOCCO3
- GI50 [1]: > 10 µM (inactive)
- GI50 [2]: > 10 µM (inactive)
- GI50 [3]: > 10 µM (inactive)
- GI50 [4]: > 10 µM (inactive)
- GI50 [5]: > 10 µM (inactive)
- GI50 [6]: > 10 µM (inactive)
- GI50 [7]: > 10 µM (inactive)
- GI50 [8]: > 10 µM (inactive)
- GI50 [9]: > 10 µM (inactive)
- GI50 [10]: > 10 µM (inactive)
- GI50 [11]: > 10 µM (inactive)
- GI50 [12]: > 10 µM (inactive)
- GI50 [13]: > 10 µM (inactive)
- GI50 [14]: > 10 µM (inactive)
- GI50 [15]: > 10 µM (inactive)
- GI50 [16]: > 10 µM (inactive)
- GI50 [17]: > 10 µM (inactive)
- GI50 [18]: > 10 µM (inactive)
- GI50 [19]: > 10 µM (inactive)
- GI50 [20]: > 10 µM (inactive)

Structure (SMILES): COc1ccc(C2C(C#N)=C(S)N(C3OC(COC(C)=O)C(OC(C)=O)C(OC(C)=O)C3OC(C)=O)C(c3ccccc3)=C2C(C)=O)cc1 (stereo not given)
- GI50 [1]: 61.4 µM (inactive)
- GI50 [2]: > 100 µM (inactive)
- GI50 [3]: > 100 µM (inactive)
- GI50 [4]: 21.6 µM (inactive)
- GI50 [5]: > 100 µM (inactive)
- GI50 [6]: > 100 µM (inactive)
- GI50 [7]: > 100 µM (inactive)
- GI50 [8]: 63.8 µM (inactive)
- GI50 [9]: > 100 µM (inactive)
- GI50 [10]: 92 µM (inactive)
- GI50 [11]: > 100 µM (inactive)
- GI50 [12]: 58.5 µM (inactive)
- GI50 [13]: > 100 µM (inactive)
- GI50 [14]: > 100 µM (inactive)
- GI50 [15]: > 100 µM (inactive)
- GI50 [16]: 53.7 µM (inactive)
- GI50 [17]: > 100 µM (inactive)
- GI50 [18]: > 100 µM (inactive)
- GI50 [19]: > 100 µM (inactive)
- GI50 [20]: > 100 µM (inactive)
